Assay results from ChEMBL document CHEMBL6078666, “Discovery of Novel Coumarin Pleuromutilin Derivatives as Potent Anti-MRSA Agents” (J Med Chem, 2024).
≈ marks a conversion by molar mass, not a printed value. Calls of active or inactive are those of the source. The calls are words filed in the database; no cut-off is given here.

Columns and labels:
Staphylococcus aureus [1] = experiment: Antibacterial activity against methicillin-resistant Staphylococcus aureus ATCC 33591 infected in female C57 mouse systemic infection model assessed as survival rate at 5 mg/kg, po measured upto 7 days relative to control; type: functional; details: ATCC 33591, 168 h, time <= 7 day
Staphylococcus aureus [2] = experiment: Antibacterial activity against methicillin-resistant Staphylococcus aureus clinical isolate 202313160 assessed as bacterial growth inhibition measured after 20 hrs by broth dilution method; type: functional
Staphylococcus aureus [3] = experiment: Antibacterial activity against methicillin-resistant Staphylococcus aureus ATCC 43300 assessed as bacterial growth inhibition measured after 20 hrs by broth dilution method; type: functional
Enterococcus faecium [4] = experiment: Ratio of MBC to MIC against vancomycin-resistant Enterococcus faecium clinical isolate 202308456; type: functional
Staphylococcus aureus [5] = experiment: Antibacterial activity against methicillin-resistant Staphylococcus aureus ATCC 33591 infected in female C57 mouse systemic infection model assessed as reduction in bacterial load in lung at 40 mg/kg, iv administered twice daily and measured after 7 days; type: functional; details: time 7 day
Staphylococcus aureus [6] = experiment: Antibiofilm activity in methicillin-resistant Staphylococcus aureus ATCC 33591 assessed as inhibition of biofilm formation at 1/16 times MIC measured after 48 hrs by crystal violet staining based analysis relative to control; type: functional; design: scale not given: the % may be the effect or the level left
Staphylococcus aureus [7] = experiment: Ratio of MBC to MIC against methicillin-resistant Staphylococcus aureus clinical isolate 202311772; type: functional
Streptococcus pneumoniae [8] = experiment: Antibacterial activity against penicillin-intermediate Streptococcus pneumoniae ATCC 49619 assessed as bacterial growth inhibition measured after 20 hrs by broth dilution method; type: functional
HepG2 = experiment: Cytotoxicity against human HepG2 cells at 0 to 40 ug/ml measured after 24 hrs by MTT assay relative to control; type: functional; details: dose 0-40 µg/ml
Staphylococcus aureus [9] = experiment: Ratio of MBC to MIC against Staphylococcus aureus ATCC 43300; type: functional
[10] = MRT in mouse at 5 mg/kg, iv measured after 8 hrs; type: ADME, organism-based; details: in vivo
Staphylococcus aureus [11] = experiment: Antibacterial activity against methicillin-resistant Staphylococcus aureus ATCC 33591 infected in female C57 mouse systemic infection model assessed as reduction in bacterial load in spleen at 40 mg/kg, iv administered twice daily and measured after 7 days; type: functional; details: time 7 day
Staphylococcus aureus [12] = experiment: Bactericidal activity against methicillin-resistant Staphylococcus aureus ATCC 33591 at 2 times MIC measured after 8 to 12 hrs by time kill assay; type: functional, organism-based; details: time 8-12 hrs
Staphylococcus aureus [13] = experiment: Bactericidal activity against methicillin-resistant Staphylococcus aureus ATCC 33591 measured upto 24 hrs by time kill assay; type: functional, organism-based
Streptococcus pneumoniae [14] = experiment: Antibacterial activity against penicillin-resistant Streptococcus pneumoniae ATCC 51916 assessed as bacterial growth inhibition measured after 20 hrs by broth dilution method; type: functional
Staphylococcus aureus [15] = experiment: (§1) Antibacterial activity against methicillin-resistant Staphylococcus aureus ATCC 33591 infected in female C57 mouse systemic infection model assessed as reduction of edema in kidney at 40 mg/kg, iv administered twice daily and measured after 7 days by H and E staining based analysis; type: functional, organism-based; details: time 7.0 day
Staphylococcus aureus [16] = experiment: Induction of morphological changes in methicillin-resistant Staphylococcus aureus ATCC 33591 assessed as appearance of shrinked cell surface at 1 time MIC measured after 4 hrs by SEM analysis; type: functional, organism-based
Staphylococcus aureus [17] = experiment: Antibacterial activity against methicillin-resistant Staphylococcus aureus ATCC 33591 infected in female C57 mouse systemic infection model assessed as survival rate at 40 mg/kg, po measured upto 7 days relative to control; type: functional; details: ATCC 33591, 168 h, time <= 7 day
Staphylococcus aureus [18] = experiment: Ratio of MBC to MIC against methicillin-resistant Staphylococcus aureus ATCC 33591; type: functional
Enterococcus faecium [19] = experiment: Antibacterial activity against vancomycin-resistant Enterococcus faecium ATCC 700221 assessed as bacterial growth inhibition measured after 20 hrs by broth dilution method; type: functional
[20] = test system: Staphylococcus epidermidis; experiment: Ratio of MBC to MIC against Staphylococcus epidermidis ATCC 51625; type: functional
Enterococcus faecium [21] = experiment: Antibacterial activity against vancomycin-resistant Enterococcus faecium clinical isolate 202308456 assessed as bacterial growth inhibition measured after 20 hrs by broth dilution method; type: functional
Staphylococcus aureus [22] = experiment: Antibacterial activity against methicillin-resistant Staphylococcus aureus ATCC 33591 assessed as bacterial growth inhibition measured after 20 hrs by broth dilution method; type: functional
Staphylococcus aureus [23] = experiment: Antibacterial activity against methicillin-resistant Staphylococcus aureus ATCC 33591 infected in female C57 mouse systemic infection model assessed as reduction in bacterial load in liver at 40 mg/kg, iv administered twice daily and measured after 7 days; type: functional; details: time 7 day
Staphylococcus aureus [24] = experiment: Ratio of MBC to MIC against methicillin-resistant Staphylococcus aureus clinical isolate 202405157; type: functional
Streptococcus pneumoniae [25] = experiment: Ratio of MBC to MIC against penicillin-resistant Streptococcus pneumoniae ATCC 51916; type: functional
Streptococcus pneumoniae [26] = experiment: Ratio of MBC to MIC against penicillin-intermediate Streptococcus pneumoniae ATCC 49619; type: functional
Staphylococcus aureus [27] = experiment: as §1, with “reduction in appearance” for “reduction”, “loosely arranged cells” for “edema”, “spleen” for “kidney”; type: functional, organism-based; details: time 7.0 day
Staphylococcus aureus [28] = experiment: as §1, with “reduction” for “reduction of edema”, “disordered myocardial fibers in heart” for “kidney”; type: functional, organism-based; details: time 7.0 day
Staphylococcus aureus [29] = experiment: Drug resistance, ratio of MIC for Staphylococcus aureus ATCC 33591 after 8 days to MIC for methicillin-resistant Staphylococcus aureus ATCC 33591 after initial exposure; type: functional; details: time 8 day
Staphylococcus aureus [30] = experiment: as §1, with “reduction” for “reduction of edema”, “inflammatory cell aggregation in lung” for “kidney”; type: functional, organism-based; details: time 7.0 day
Enterococcus faecium [31] = experiment: Ratio of MBC to MIC against vancomycin-resistant Enterococcus faecium ATCC 51559; type: functional
[32] = test system: Staphylococcus epidermidis; experiment: Ratio of MBC to MIC against methicillin-resistant Staphylococcus epidermidis clinical isolate 202409139; type: functional
Staphylococcus aureus [33] = experiment: Ratio of MBC to MIC against methicillin-resistant Staphylococcus aureus clinical isolate 202313160; type: functional
Staphylococcus aureus [34] = experiment: as §1, with “reduction in number” for “reduction”, “inflammatory cells” for “edema”, “heart” for “kidney”; type: functional, organism-based; details: time 7.0 day
Staphylococcus aureus [35] = experiment: as §1, with “reduction” for “reduction of edema”, “local blood cell accumulation in spleen” for “kidney”; type: functional, organism-based; details: time 7.0 day
[36] = Volume of distribution at steady state in mouse at 5 mg/kg, iv measured after 8 hrs; type: ADME, organism-based; details: in vivo, read-out: Vdss
[37] = Half life in mouse at 5 mg/kg, iv measured after 8 hrs; type: ADME, organism-based; details: in vivo

C=C[C@]1(C)C[C@@H](OC(=O)CSc2cc(=O)oc3cc(OC)ccc23)[C@]2(C)[C@H](C)CC[C@]3(CCC(=O)[C@H]32)[C@@H](C)[C@@H]1O
survival at 5 mg/kg (Staphylococcus aureus [1]): 40%
MIC (Staphylococcus aureus [2]): 0.063 µg/mL (≈ 0.111 µM)
MIC (Staphylococcus aureus [3]): 0.031 µg/mL (≈ 0.0545 µM)
Ratio (Enterococcus faecium [4]): 2
Activity (Staphylococcus aureus [5]): 2.21 log10CFU/g
Activity (Staphylococcus aureus [6]): 80.67%
Ratio (Staphylococcus aureus [7]): 1
MIC (Streptococcus pneumoniae [8]): 0.031 µg/mL (≈ 0.0545 µM)
Activity (HepG2): >85%
Ratio (Staphylococcus aureus [9]): >4
MRT [10]: 36.6 min
Activity (Staphylococcus aureus [11]): 1.68 log10CFU/g
Activity (Staphylococcus aureus [12]): Active
Activity (Staphylococcus aureus [13]): Dose-dependent-effect
MIC (Streptococcus pneumoniae [14]): 0.063 µg/mL (≈ 0.111 µM)
Activity (Staphylococcus aureus [15]): Active
Activity (Staphylococcus aureus [16]): Active
survival at 40 mg/kg (Staphylococcus aureus [17]): 80%
Ratio (Staphylococcus aureus [18]): 2
MIC (Enterococcus faecium [19]): 0.031 µg/mL (≈ 0.0545 µM)
Ratio [20]: 4
MIC (Enterococcus faecium [21]): 0.031 µg/mL (≈ 0.0545 µM)
MIC (Staphylococcus aureus [22]): 0.031 µg/mL (≈ 0.0545 µM)
Activity (Staphylococcus aureus [23]): 2.05 log10CFU/g
Ratio (Staphylococcus aureus [24]): 2
Ratio (Streptococcus pneumoniae [25]): 2
Ratio (Streptococcus pneumoniae [26]): >4
Activity (Staphylococcus aureus [27]): Active
Activity (Staphylococcus aureus [28]): Active
fold change (FC) (Staphylococcus aureus [29]): 4
Activity (Staphylococcus aureus [30]): Active
Ratio (Enterococcus faecium [31]): 1
Ratio [32]: 2
Ratio (Staphylococcus aureus [33]): 2
Activity (Staphylococcus aureus [34]): Active
Activity (Staphylococcus aureus [35]): Active
Vd [36]: 1.76 L/kg
half-life [37]: 91.2 min
